# Data: patent US20090082453A1, “Exogenous Methyl Dihydrojasmonate for Prevention and Control of Biotic Attack in Plants” (NEW BIOLOGY, INC., priority 2007, published 2009)
# Legend:
# powdery mildew = assay: Treatment and control of powdery mildew in roses (Example 10); assay type: in vivo, powdery mildew on 'Mr. Lincoln' roses; conditions: beyond disease levels measured prior to first treatment
# Method: Outdoor potted roses of the cultivar ‘Mr. Lincoln’ were treated with 9 treatment samples (8 formulations and one untreated control). For each treatment sample, three plots having three plants each were treated for a total of 9 plants per treatment. Roses were treated every 2 weeks by spraying the foliage of each plant to the point of drip to ensure maximum coverage. Plants were initially evaluated for powdery mildew incidence and severity prior to the first treatment of the trial. […] Subsequent evaluations followed every 10 days for 2 months. Evaluations consisted of evaluating 60 individual leaves per plot (20 leaves were collected from 3 rose plants per plot) for disease incidence and severity. Disease incidence was determined by counting the number of leaves infected. Disease severity was determined as the percentage of leaf surface infected with the disease. Analysis of Variance was calculated for both severity and incidence. Table 11 below describes the mean number of leaves found to be infected with powdery mildew for each treatment group on respective evaluation days. […] FIG. 15 is a graph illustrating the percentage of leaves infected in each treatment group. In FIG. 15, the individual bars within each treatment represent successive evaluations on days 1, 11, 21, 31, 41, 52, and 62.
# [1] = tested on: cell suspension cultures of E. californica; conditions: cited from earlier work
# damping off disease = assay: Observational decrease in disease in tomato seedlings (Example 8); assay type: in vivo; conditions: 1.5 mM MDHJ, 0.5% canola oil, 0.125% Triton X-100 foliar spray; 17th day after treatment
# Method: FIG. 9 is a photograph of an untreated tomato seedling, illustrating the damping off disease on the leaves;
# One group of tomato seedlings was treated with a formulation comprising 1.5 mM MDHJ, 0.5% canola oil, and 0.125% Triton® X-100 by spraying the foliage until the point of dripping. Another group of tomato seedlings was left untreated. Plants from each group were isolated in respective Plexiglas boxes. Photographs of the plants were taken on the 17th day after treatment. One plant in each treatment group had died.
# gene expression = conditions: tobacco plants; cited from earlier work
# trypsin inhibitor = assay: Activation of trypsin inhibitor in roses (Example 6); assay type: in vivo, white miniature roses (Parade Rose); conditions: 48 hours, FIG. 6; for proteinase (trypsin) inhibitor activity: 5.0 mM foliage spray plus root drench
# Method: Potted plants of white miniature roses, marketed as Parade Rose® received one of three treatments. Roses were treated by (1) spraying the foliage of each plant to the point of drip to ensure maximum coverage; and (2) pouring 50 ml of the formulation into the soil within the root zone. There were three plants per treatment. 48 hours after treatment, all leaves from the entire plant were collected and pooled for analysis of trypsin inhibitor activity. Leaf extracts were prepared by adding 25 ml of 0.4 M sodium phosphate, pH 9, extraction buffer and 3 ml of 10% Triton® X-100 and grinding in a blender. The extract was filtered through four layers of cheesecloth. One milliliter of extract was spun at 2000×g for 15 minutes at 4-degrees and the resulting supernatant was frozen until the assay could be completed.
# For the trypsin assay, rose extracts were thawed and replicates of 1, 2, and 3 μl for each extract were added to trypsin assay solution containing p-toluene-sulfonyl-L-arginine methyl ester (TAME) as the trypsin substrate. The level of trypsin activity was measured and reflects trypsin inhibition by trypsin inhibitor. Data is shown in FIG. 6, a graph of the results, and is presented as the mean and SEM of % remaining trypsin activity per gram fresh weight for 1, 2, and 3 μl. In FIG. 6, lower values represent greater trypsin inhibitor activity.
# aphids = assay: Field study of aphid infestations in roses (Example 7); assay type: in vivo, aphids on 'Mr. Lincoln' roses; conditions: for concentration at which more efficacious against aphids: 1.5 mM vs 5 mM; for incidence of aphids on roses: foliar spray every 10-13 days, height of aphid pressure, FIGS. 7 and 8
# Method: Potted roses of the cultivar ‘Mr. Lincoln’ were treated with 9 treatment samples (8 formulations and one untreated control). For each treatment sample, three plots having three plants each were treated, for a total of 9 plants per treatment. Roses were treated every 10-13 days by spraying the foliage of each plant to the point of drip to ensure maximum coverage. The plants were evaluated at approximately 10-day intervals for the number of aphids on each plant. Table 8 below includes the descriptions of the test formulations.
# FIGS. 7 and 8 are two representations of the same data, taken at the height of aphid pressure. FIG. 7 is a histogram representing mean and SEM aphid counts on the roses with the various formulations. In FIG. 8, each data point represents the number of aphids on a single plant.
# Polyphenol Oxidase = assay: Activation of polyphenol oxidase in field-grown roses (Example 4); assay type: in vivo, 'Julia Child' roses; conditions: FIG. 5; for PPO activity: 5 mM + 0.5% canola oil + 0.125% Triton X-100, 44 hours, caffeic acid substrate
# Method: Field grown 1-year old ‘Julia Child’ roses were treated with foliar sprays of two different formulations. Roses were treated by spraying the foliage of each plant to the point of drip to ensure maximum coverage. There were three plants per treatment. 44 hours after application, 3 young leaves from each plant (each leaf from a different stem and all leaves at the same stage of development) were collected and pooled for analysis of PPO activity as in Example 2 above, except that 0.5 ml of ice cold extraction buffer were used, followed by addition of 160 μl 10% Triton® X-100. 50 μl of the supernatant was added to 1 ml of PPO assay buffer. The formulations are set forth in Table 5 below, and the data is shown FIG. 5, a graph of PPO activity for the two formulations and an untreated control. Data are reported as mean and SEM for each treatment.
# Polyphenol Oxidase (PPO) = assay: Polyphenol oxidase (PPO) induction in tomato plants (Example 2); assay type: in vivo; conditions: tomato seedlings, 1.5 mM + 0.5% canola oil + 0.125% Triton X-100, 24 hours; FIG. 2
# Method: Three test samples were prepared using tomato seedlings. The descriptions of the treatments given to each test sample can be found in Table 3 below.
# Liquid formulations were applied by spraying three squirts to the foliage with a spray bottle. Seedlings from each treatment were isolated in plastic boxes (i.e., as in Example 1, plants given the same treatment were isolated together). Polyphenol oxidase assays were carried out on the entire foliage of each plant 24 hours after application (Stout, M. J., Brovont, R. A., and Duffey, S. S., J. Chemical Ecology 24:6, pp. 946-963, the contents of which are incorporated by reference in their entirety).
# The assay procedure was as follows. Tomato leaflets were weighed and ground in 1 ml of ice-cold extraction buffer (0.1M sodium phosphate buffer, pH 7, containing 3.5% polyvinylpolypyrolidine). Following grinding, 0.4 ml of 10% Triton® X-100 was added to the leaf homogenate, mixed and centrifuged for 15 minutes at 2000×g at 4-degrees. Fifteen microliters of the resulting supernatant was added to 1 ml of PPO Assay Buffer (2.92 mM caffeic acid in pH 7 sodium phosphate buffer) and the change in absorbance at A470 was recorded every minute for 10 minutes. Change in absorbance rate (OD A470/min/g protein) reflects the rate of formation of a compound produced by the activity of PPO. […]
# [2] = tested on: proteinase inhibitor I and II; assay: Proteinase inhibitor I and II induction in tomato seedlings, radial immunodiffusion assay, 24 h (Example 1); assay type: in vivo; conditions: 1.5 mM in water, FIG. 1
# Method: Seven test samples or groups were prepared using two week old tomato seedlings. The descriptions of the treatments given to each test sample can be found in Table 2 below. Liquid formulations were applied by spraying three squirts to the foliage with a spray bottle. Eight plants per treatment (four pots per treatment, each pot containing two seedlings) were sprayed with each test formulation. Plants from each treatment were isolated in enclosed Plexiglas boxes and placed overnight in a light- and temperature-controlled growth chamber (i.e., plants given the same treatment were isolated together in a single Plexiglas box; plants given different treatments were in different boxes). Twenty-four hours after treatment, each plant was assayed for proteinase inhibitor I and II production by a radial immunodiffusion assay using anti-inhibitor antibodies (Ryan, C. A., Analytical Biochemistry 19 (1967), pp. 424-440, the contents of which are incorporated by reference in their entirety). [table] The results for each of the test samples are shown in FIG. 1, a graph in which proteinase inhibitor levels (PI-I and PI-II) are reported in micrograms of proteinase inhibitor per milliliter of leaf extract for each test sample. The two plants per pot were pooled to give one data point per pot (i.e., four data points total were collected per treatment).
SMILES,progression of powdery mildew incidence (powdery mildew),concentration inducing benzo[c]phenanthridine alkaloid synthesis [1],concentration relative to MJ required for the same effect [1],signs of disease in seedlings (damping off disease),bioactivity relative to MJ (gene expression),proteinase (trypsin) inhibitor activity (trypsin inhibitor),enhancement of proteinase inhibitor activity compared with MJ (trypsin inhibitor; 5.0 mM),concentration at which more efficacious against aphids (aphids),incidence of aphids on roses (aphids),PPO activity (Polyphenol Oxidase),"elicitation of plant defenses (PPO) compared with MJ (Polyphenol Oxidase; field-grown roses, 5 mM, 44 hours)",activation of PPO (Polyphenol Oxidase (PPO)),proteinase inhibitor level compared with wounding response [2]
"CCCCCC1C(=O)CCC1CC(=O)OC (stereo not shown) [MDHJ, methyl dihydrojasmonate]",similarly effective in slowing the progression of powdery mildew incidence,10 µM,five times the concentration of MJ required to produce the same effect,did not show signs of disease,only a small fraction of the bioactivity of MJ,enhanced proteinase inhibitor activity,to a greater degree than MJ,more efficacious at the lower concentration of 1.5 mM,reduced aphid counts,increased PPO activity,equal to or better than the levels seen after MJ application,activate PPO,much greater level than the plant's natural response to wounding
"CC/C=C\CC1C(=O)CCC1CC(=O)OC (stereo not shown) [MJ, methyl jasmonate, reference compound]",similarly effective in slowing the progression of powdery mildew incidence,,,,,enhanced proteinase inhibitor activity,,more efficacious at the higher concentration of 5 mM,reduced aphid counts,increased PPO activity,,,much greater level than the plant's natural response to wounding
